Experiments:
[1] = test system: TNF-α-induced adhesion of U937 monocytic cells to HT-29 cells; experiment: TNF-α-induced colonic epithelial cell adhesion assay; format: cell-based, human; details: for inhibition of TNF-α-induced monocyte-epithelial adhesion: 10 μM; for inhibition at 10 µM: Homo sapiens, Epithelial cell, U937 adhesion to HT-29 cells, TNF-α-induced
Description: (§1) Synthesized mollugin derivatives were subjected to the colonic epithelial cell adhesion assay, which mimics the initial stage of colon inflammation. The inhibition of TNF-α-induced or IL-6-induced adhesion of U937 monocytic cells to HT-29 cells in 10 μM solution of synthesized molecules was measured, and the results are summarized in Table 1 and Table 2. Mesalazine (2), a commercially available medication for the treatment of IBD, and mollugin were chosen as assay positive controls.
(§2) HT-29 human colonic epithelial cells and U937 human pre-monocytic cells were grown in RPMI 1640 medium supplemented with 10% FBS, 100 IU/mL penicillin, and 100 µg/mL streptomycin in a humidified incubator under 5% CO2/95% air.
(§3) U937 monocytic cell adhesion to colonic epithelial cells was evaluated using human U937 pre-monocytic cells, which were prelabeled with 2′,7′-bis(2-carboxyethyl)-5(6)-carboxyfluorescein acetoxymethyl ester (BCECF/AM, 10 μg/mL) for 1 h at 37 °C. HT-29 cells cultured in 24-well plates were pretreated with test compound, 5-ASA, or tofacitinib for 1 h prior to incubation with TNF-α (10 ng/mL) and IL-6 (5 ng/mL) for an additional 3 h. Cells were then co-incubated with BCECF/AM-prelabeled U937 cells (1 × 10^6 cells/well) for 30 min at 37 °C. Non-adhering U937 cells were removed, and the HT-29 cells and adherent U937 cells were washed twice with PBS. Images were captured and processed with a Nikon ECLIPSE TE2000-U microscope and NIS-Elements F software (Nikon, Tokyo, Japan). For quantitative analysis, other sets of cells were lysed in 0.1% Triton X-100 in Tris (0.1 M), and the fluorescence was measured using a fluorescence-detecting microplate reader (Promega , Madison, WI, USA) at […]. Experiments were performed in triplicate and repeated at least three times independently.

[2] = test system: IL-6-induced adhesion of U937 monocytic cells to HT-29 cells; experiment: IL-6-induced colonic epithelial cell adhesion assay; format: cell-based, human; details: for inhibition of IL-6-induced monocyte-epithelial adhesion: 10 μM; for inhibition at 10 µM: Homo sapiens, Epithelial cell, U937 adhesion to HT-29 cells, IL-6-induced
Description: as §1, §2, §3

[3] = Metabolic stability, rat liver microsomes; format: in vitro ADME; details: 30 min, 1 μM
Description: (§4) Pooled human liver microsomes (150 donor) and dog, rat, mouse liver microsomes were obtained from BD Gentest Co. (Woburn, MA, USA). NADPH regeneration system was obtained from Promega. S-Mephenytoin, 4-hydroxymephenytoin, and 1’-hydroxymidazolam were purchased from Ultrafine Chemical Co. (Manchester, UK). All other chemicals and solvents were of the highest grade available. The metabolic stability assay was performed by incubation of human or selected animal liver microsomes (most often dog, rat and mouse), at 37 °C with a test compound at a final concentration of 1 μM, in the presence of 0.5 mg/mL microsomal protein and NADPH regeneration system, in a total volume of 100 μL of 100 mM phosphate buffer, pH 7.4. The incubation was started by the addition of NADPH regeneration system and terminated with 40 μL of ice-cold acetonitrile at 0 and 30 min. Precipitated proteins were removed by centrifugation at 10,000× g for 5 min at 4 °C. Aliquots of the supernatant were injected onto an LC-MS/MS system. Incubations terminated prior to the addition of NADPH regeneration system (time point 0 min) were used as standards, defined as 100%. Percent of the parent compound remaining was calculated by comparing peak area.

[4] = Metabolic stability, mouse liver microsomes; format: in vitro ADME; details: 30 min, 1 μM
Description: as §4

[5] = Metabolic stability, human liver microsomes; format: in vitro ADME; details: 1 μM
Description: as §4

[6] = Metabolic stability, dog liver microsomes; format: in vitro ADME; details: 30 min, 1 μM
Description: as §4

Metabolic Stability (% Remain, 30 min) Rat [3] [% Remain] | Metabolic Stability (% Remain, 30 min) Mouse [4] [% Remain] | Metabolic Stability (% Remain, 30 min) Human [5] [% Remain] | Metabolic Stability (% Remain, 30 min) Dog [6] [% Remain] | Structure (SMILES) | inhibition of TNF-α-induced monocyte-epithelial adhesion [1] | inhibition at 10 µM [1] [%] | inhibition of IL-6-induced monocyte-epithelial adhesion [2] | inhibition at 10 µM [2] [%]
– | – | – | – | CCN1CCN(C(=O)c2c3c(c4ccccc4c2O)OC(C)(C)C=C3)CC1 [6o] | good % inhibition | 46.2 ± 5.4 | reduced % inhibition | 9.4 ± 2.1
– | – | – | – | CN1CCN(C(=O)c2c3c(c4ccccc4c2O)OC(C)(C)C=C3)CC1 [6n, (6-Hydroxy-2,2-dimethyl-2H-benzo[h]chromen-5-yl)(4-methylpiperazin-1-yl)methanone] | – | 37.4 ± 3.3 | – | 34.2 ± 7.9
– | – | – | – | CC1(C)C=Cc2c(C(=O)OCCc3ccccn3)c(O)c3ccccc3c2O1 [6j, 2-(Pyridin-2-yl)ethyl 6-hydroxy-2,2-dimethyl-2H-benzo[h]chromene-5-carboxylate] | – | 43.1 ± 6.2 | – | 33.6 ± 5.9
– | – | – | – | CCNC(=O)c1c2c(c3ccccc3c1O)OC(C)(C)C=C2 [6m, N-Ethyl-6-hydroxy-2,2-dimethyl-2H-benzo[h]chromene-5-carboxamide] | – | 38.4 ± 5.7 | – | 25.8 ± 3.4
7 | 8 | 12 | 9 | CN(C)CCCOC(=O)c1c2c(c3ccccc3c1O)OC(C)(C)C=C2 [6b, 3-(Dimethylamino)propyl 6-hydroxy-2,2-dimethyl-2H-benzo[h]chromene-5-carboxylate] | – | 39.6 ± 2.9 | – | 34.8 ± 4.1
2 | 3 | 6 | 2 | CN(C)CCOC(=O)c1c2c(c3ccccc3c1O)OC(C)(C)C=C2 [6a, 2-(Dimethylamino)ethyl 6-hydroxy-2,2-dimethyl-2H-benzo[h]chromene-5-carboxylate] | – | 38 ± 4.9 | – | 35.5 ± 4.3
1 | 2 | 13 | 1 | CNC(=O)c1c2c(c3ccccc3c1O)OC(C)(C)C=C2 [6l, 6-Hydroxy-N,2,2-trimethyl-2H-benzo[h]chromene-5-carboxamide] | – | 45.4 ± 4.7 | – | 12.2 ± 4.4
2 | 2 | 10 | 6 | CC1(C)C=Cc2c(C(N)=O)c(O)c3ccccc3c2O1 [6k, 6-Hydroxy-2,2-dimethyl-2H-benzo[h]chromene-5-carboxamide] | – | 42.6 ± 4.2 | – | 39.1 ± 4.7
– | – | – | – | COC(=O)c1c2c(c3cc(F)ccc3c1O)OC(C)(C)C=C2 [14d, Methyl 9-fluoro-6-hydroxy-2,2-dimethyl-2H-benzo[h]chromene-5-carboxylate] | – | 24.9 ± 8.1 | – | 28 ± 5.6
– | – | – | – | CC1(C)C=Cc2c(C(=O)OCCN3CCCC3)c(O)c3ccccc3c2O1 [6c, 2-(Pyrrolidin-1-yl)ethyl 6-hydroxy-2,2-dimethyl-2H-benzo[h]chromene-5-carboxylate] | good % inhibition | 39.7 ± 5.7 | reduced % inhibition | 12.4 ± 2.1

— PMC6222789, “CF3-Substituted Mollugin 2-(4-Morpholinyl)-ethyl ester as a Potential Anti-inflammatory Agent with Improved Aqueous Solubility and Metabolic Stability” (Molecules : A Journal of Synthetic Chemistry and Natural …, 2018)
